Results: paper PMC6130490, “Inhibition of key enzymes linked to type 2 diabetes by compounds isolated from Aframomum melegueta fruit” (Pharmaceutical Biology, 2017)
Read-outs that look alike come from different tables or passages of the source.

Legend:
Type in all cases: biochemical
[1] = biological target: T1, porcine pancreatic α-amylase (E.C. 3.2.1.1) (Sus scrofa, UniProt P00690); experiment: Mechanism of α-amylase inhibition (Lineweaver-Burke kinetics); conditions: compound 30 μg/mL; for type of inhibition of α-amylase: Lineweaver-Burke plot; for KM, α-amylase inhibition / Ki / Vmax, α-amylase inhibition: starch 0.063–1.0%
T1 construct: purchased Sigma-Aldrich through Capital Lab Supplies
T1 sequence (P00690 16-511): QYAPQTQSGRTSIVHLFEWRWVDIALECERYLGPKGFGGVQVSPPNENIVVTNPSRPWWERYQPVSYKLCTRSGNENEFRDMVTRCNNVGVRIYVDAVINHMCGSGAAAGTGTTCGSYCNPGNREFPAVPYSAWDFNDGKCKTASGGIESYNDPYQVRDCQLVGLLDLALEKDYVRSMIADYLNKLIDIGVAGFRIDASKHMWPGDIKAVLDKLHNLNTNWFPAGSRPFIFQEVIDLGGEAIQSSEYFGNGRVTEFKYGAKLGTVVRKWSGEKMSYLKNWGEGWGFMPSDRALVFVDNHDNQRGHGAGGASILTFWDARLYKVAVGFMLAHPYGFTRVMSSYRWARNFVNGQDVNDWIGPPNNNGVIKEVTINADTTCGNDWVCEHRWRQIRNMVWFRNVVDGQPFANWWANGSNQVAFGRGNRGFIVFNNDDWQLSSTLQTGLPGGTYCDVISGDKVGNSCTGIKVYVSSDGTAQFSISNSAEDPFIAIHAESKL
Description: (§1) This solution was pre-incubated at 25 °C for 10 min, after which 250 μL of 1% starch solution in 0.02 M sodium phosphate buffer (pH 6.9) was added at a time interval of 10 s and then further incubated at 25 °C for 10 min. The reaction was terminated after incubation by adding 1 mL of dinitrosalicylic acid (DNS) reagent. The tube was then boiled for 10 min and cooled to room temperature. […] A control was prepared using the same procedure using distilled water instead of the compound.
(§2) The isolated compounds were subjected to kinetic experiments to determine the type of inhibition exerted on α-amylase and α-glucosidase. The experiment was conducted according to the protocols mentioned above at a constant concentration of the compounds (30 μg/mL) with a variable concentration of substrate. […] The initial velocity data obtained were used to construct Lineweaver-Burke plots to determine the K M (Michaelis constant) and v max (maximum velocity) of the enzyme as well as the Ki (inhibition binding constant as a measure of affinity of the inhibitor to the enzyme) and the type of inhibition for both enzymes.

[2] = biological target: T2, Saccharomyces cerevisiae α-glucosidase (E.C. 3.2.1.20) (Saccharomyces cerevisiae, UniProt P53341); experiment: biochemical; conditions: for type of inhibition of α-glucosidase: Lineweaver-Burke plot
T2 construct: purchased Sigma-Aldrich through Capital Lab Supplies
Description: (§3) The 5.0 mM p-nitrophenyl glucopyranoside (pNPG) substrate solution was prepared in 20 mM phosphate buffer, pH 6.9. […] Thereafter, 250 μL of 5.0 mM pNPG was dissolved in 20 mM phosphate buffer (pH 6.9) as a substrate to start the reaction. The reaction mixture was incubated at 37 °C for 30 min.
as §2

[3] = biological target: T2, Saccharomyces cerevisiae α-glucosidase (E.C. 3.2.1.20); experiment: α-Glucosidase inhibitory effect (pNPG method)
Description: (§4) Saccharomyces cerevisiae α-glucosidase (E.C. 3.2.1.20), porcine pancreatic α-amylase (E.C. 3.2.1.1), p-nitrophenyl glucopyranoside (pNPG) and p-nitrophenol were obtained from Sigma-Aldrich through Capital Lab Supplies, New Germany, South Africa. Starch, dinitrosalicylic acid (DNS), maltose, absolute ethanol and ethyl acetate were obtained from Merck Chemical Company, Durban, South Africa.
as §3

[4] = biological target: T1, porcine pancreatic α-amylase (E.C. 3.2.1.1); experiment: α-Amylase inhibitory effect (starch/DNS method); conditions: mean ± SD of triplicate; compounds tested at 30–240 μg/mL; read-out: IC50 α-amylase inhibition
Description: as §4, §1

[5] = compound 30 μg/mL, pNPG 0.313–5.0 mM
[6] = compound 30 μg/mL, pNPG 0.313–5.0 mM, read-out: Ki, α-glucosidase inhibition (converted)
[7] = mean ± SD of triplicate, compounds tested at 30–240 μg/mL, read-out: IC50 α-glucosidase inhibition

T2 sequence (P53341 whole entry): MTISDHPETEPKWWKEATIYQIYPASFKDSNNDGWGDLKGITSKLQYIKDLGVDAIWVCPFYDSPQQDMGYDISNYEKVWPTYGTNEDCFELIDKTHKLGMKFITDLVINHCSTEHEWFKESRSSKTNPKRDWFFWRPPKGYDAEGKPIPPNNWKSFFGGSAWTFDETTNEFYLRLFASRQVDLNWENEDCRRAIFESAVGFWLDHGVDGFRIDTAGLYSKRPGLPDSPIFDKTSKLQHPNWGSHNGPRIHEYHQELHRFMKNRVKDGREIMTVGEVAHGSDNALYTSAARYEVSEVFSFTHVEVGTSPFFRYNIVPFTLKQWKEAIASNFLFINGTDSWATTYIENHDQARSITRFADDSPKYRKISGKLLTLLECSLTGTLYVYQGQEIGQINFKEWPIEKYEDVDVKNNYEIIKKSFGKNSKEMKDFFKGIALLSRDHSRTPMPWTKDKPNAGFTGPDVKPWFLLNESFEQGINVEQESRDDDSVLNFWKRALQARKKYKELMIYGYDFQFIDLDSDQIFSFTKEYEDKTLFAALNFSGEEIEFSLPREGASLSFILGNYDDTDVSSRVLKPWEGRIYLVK

Compound	type of inhibition of α-amylase [1]	KM, α-amylase inhibition [1] [%]	Ki [1] [µM]	Vmax, α-amylase inhibition [1] [µmol/min]	Vmax, α-glucosidase inhibition [2, 5] [µmol/min]	Ki [2, 6] [µM]	IC50 [3, 7] [µM]	IC50 [4] [µM]	Ki [2] [µM]	type of inhibition of α-glucosidase ([2]; compound 30 μg/mL)	IC50 [3] [µM]
CCCCC/C=C/C(=O)CCc1ccc(O)c(OC)c1 [6-Shagaol (2), 6-shogaol]	mixed	0.09	226	24.10	55.70	14.5	326 ± 5.6	443.2 ± 1.38			
CCCCC[C@H](O)CC(=O)CCc1ccc(O)c(OC)c1 [6-Gingerol (3), 6-gingerol]	noncompetitive	0.06	89.9	16.73	123.10			81.8 ± 7.79	26.6	noncompetitive	21.5 ± 0.45
CC1(C)CC[C@]2(C(=O)O)CC[C@]3(C)C(=CC[C@@H]4[C@@]5(C)CC[C@H](O)C(C)(C)[C@@H]5CC[C@]43C)[C@@H]2C1 [Oleanolic acid (4), oleanolic acid]					64.20						
CCCCCCCC(=O)CCc1ccc(O)c(OC)c1 [6-Paradol (1), 6-paradol]	noncompetitive	0.06	83.7	15.60	81.20	22.4	243 ± 6.65	665 ± 11.6		noncompetitive	
